Data set [1] deals with rectum, mid colon and distal colon. To be noted: wild type rats, cited from earlier work.
The next data set deals with Parkinson's disease. To be noted: in vivo; cited from earlier work.
The test system of data set [2] is patients with a diagnosis of iPD. In words: Retrospective cross-sectional medical record analysis of 333 iPD patients: constipation. It is filed as in vivo, human. To be noted: for Constipation, % of patients / No Constipation, % of patients: by dopaminergic treatment. The source says: The inventors conducted a retrospective, cross-sectional medical record analysis of 333 consecutive patients with a diagnosis of iPD seen in the Movement Disorders clinic of Cedars-Sinai Medical Center from October 2010 to March 2014. Demographic and clinical data, including vitals, motor and non-motor symptoms, dopaminergic medications, comorbidities and anti-hypertensive medications were collected at the initial consultation visit. All data were collected in an Excel database and analyzed by SPSS version 19.0 (SPSS, Inc., Chicago, Ill.). Continuous variables were expressed as mean±standard deviation and compared by the use of Student t test (normally distributed) or as median±interquartile range value and compared by the use of Mann-Whitney U test (not normally distributed), as appropriate. Normality of data distribution was evaluated using the Kolmogorov-Smirnov test. Categorical variables were expressed as proportion and compared by use of χ^2 test with risk ratios and 95% confidence intervals quoted. To determine the independent predictors of constipation, logistic regression analysis was performed. Variables achieving p<0.1 on univariate analysis were then included in a multivariate analysis. Statistical significance was accepted at p<0.05. […] Constipation was strongly associated with dopaminergic treatment. On the other hand, only 28/63 (44.4%) patients treated with beta-blockers reported constipation (Table 2).

Data set [3] has as its system Parkinson's disease patient. Nature of the data set: Case report of one Parkinson's disease patient. Type of data set: in vivo, human. The method, then:
Low-dose beta-blocker therapy (carvedilol 6.25 mg BID) was started to treat anxiety avoiding the sedative effect of benzodiazepine.

The conditions of data set [4]: in vivo; cited from earlier work.
The conditions of data set [5]: current (oral) formulations; cited from earlier work.

Here are results for 14 compounds from patent US10632124B2, “Adrenoceptors antagonists for the prevention and treatment of neurodegenerative conditions” (Cedars-Sinai Medical Center, priority 2013, dated 2020).

Molecules are shown by their SMILES.

In the case of `CN1[C@@H]2CC[C@H]1C[C@@H](OC(=O)C(CO)c1ccccc1)C2` (some centres unmarked) [atropine], the “contractions induced by vagus nerve and pelvic nerve stimulation” value in data set [1] was “abolished”.
Turning to `c1ccc2c(c1)OCC(C1=NCCN1)O2` (centres unmarked) [idaxozan], the levodopa-induced dyskinesias result with Parkinson's disease is reported as “could also be diminished”.
Turning to `NC12CC3CC(CC(C3)C1)C2` [Amantadine], the “OR of constipation, univariate logistic regression” value in data set [2] worked out at 1.528.
For the compound `CC(C)(C)NCC(O)COc1cccc2c1CC(O)C(O)C2` (centres unmarked) [nadolol], the “resting, postural, and action tremor in Parkinson's disease” value in the data set on Parkinson's disease was “can be diminished”.
As to `N[C@@H](Cc1ccc(O)c(O)c1)C(=O)O` [Levodopa, levodopa], the motor symptoms entry in data set [3] (Sinemet 25/100 TID added to pramipexole) is given as “almost complete resolution of motor symptoms”. The “Constipation, % of patients” value was found to be 60.0% in data set [2] (Betablockers) and 71.7% in data set [2] (No Betablockers). Moreover, the “No Constipation, % of patients” value in data set [2] (Betablockers) is listed as 40.0%; in data set [2] (No Betablockers), 28.3%. The “OR of constipation, multivariate logistic regression” value in data set [2] (multivariate incl. age, gender, PD duration, levodopa, dopamine-agonists, beta-blockers) stood at 2.077. Also, in data set [2], the “OR of constipation, univariate logistic regression” value worked out at 2.659.
As for `Cc1cc2c(OCC(CNC(C)(C)C)OC(=O)c3ccccc3)cccc2[nH]1` (centres unmarked) [bopindolol], the “passage of the blood-brain barrier” value in data set [4] is “pass the blood-brain barrier”.
For the compound `CCCN[C@H]1CCc2nc(N)sc2C1` [pramipexole], the tolerability result in data set [3] (doses up to 1.5 mg TID) is “tolerated well”.
Turning to `CC(C)(C)NC[C@H](O)COc1nsnc1N1CCOCC1` [timolol], the “passage of the blood-brain barrier” value in data set [4] is reported as “pass the blood-brain barrier”.
As to `CCC1(c2c[nH]cn2)Cc2ccc(F)cc2C1` (centres unmarked) [fipemazole], the levodopa-induced dyskinesias entry with Parkinson's disease is listed as “could also be diminished”.
In the case of `COc1ccccc1OCCNCC(O)COc1cccc2[nH]c3ccccc3c12` (centres unmarked) [carvedilol], in data set [3] (6.25 mg BID), the “anxiety, constipation and sleep” value is “improved dramatically”. The “GI symptoms (abdominal bloating and constipation)” value in data set [3] (restarted at the same dose after self-discontinuation) is on record as “virtually immediate resolution”. In data set [5], the absorption entry was “rapid and complete”; the average elimination half-life entry is “about 8 hours”. In data set [4], the “passage of the blood-brain barrier” value was “pass the blood-brain barrier”.
Take `C=CCOc1ccccc1OCC(O)CNC(C)C` (centres unmarked) [oxprenolol]: in data set [4], the “passage of the blood-brain barrier” value is listed as “pass the blood-brain barrier”.
On to `CC(C)NCC(O)COc1ccc(COCCOC(C)C)cc1` (centres unmarked) [bisopropolol], for which, in data set [4], the “passage of the blood-brain barrier” value was “pass the blood-brain barrier”.
As to `CC(C)NCC(O)COc1cccc2ccccc12` (centres unmarked) [propranolol], the levodopa-induced dyskinesias result in the data set on Parkinson's disease is on record as “could reduce levodopa-induced dyskinesias without worsening Parkinsonism”. In addition, the “relaxations induced by hypogastric nerve stimulation” value in data set [1] (rectum, mid colon, distal colon) is “abolished”. Also, the “passage of the blood-brain barrier” value in data set [4] is “pass the blood-brain barrier”.
For the compound `CC(C)NCC(O)COc1ccc(CCOCC2CC2)cc1` (centres unmarked) [betaxolol], the “passage of the blood-brain barrier” value in data set [4] is on record as “pass the blood-brain barrier”.
